Data as given in patent publication US20250051355A1, “COMPOUNDS, COMPOSITIONS, AND METHODS” (ACONCAGUA BIO, INC., priority 2023, published 2025).

Assays:
[1] = molecular target: human calcitonin receptor (CTR) and RAMP3 (AMY3) (Homo sapiens, UniProt O60896+P30988); test: Amylin Receptor cAMP Assay II; assay type: cell-based; details: COS-7/AMY3 cells, cAMP dynamic 2 kit, read-out: Amylin Receptor cAMP Stimulation Activity: EC50
Summary of the method: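 COS-7 cells stably co-expressing human CTR and RAMP3 (AMY3) were treated with 4-fold serially diluted compounds at 2000 cells/well in HBSS with 20 mM HEPES, 0.5 mM IBMX and 0.1% casein for 30 min at 37 °C. cAMP was measured by HTRF (cAMP-d2 plus anti-cAMP cryptate, 1 h at RT) with reads at 665/615 nm.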

[2] = molecular target: T1, human calcitonin receptor (CTR) (Homo sapiens, UniProt P30988); test: Calcitonin receptor (CTR) cAMP Assay; assay type: cell-based; details: COS7-human CTR Clone #2 cells, cAMP dynamic 2 kit; read-out: Calcitonin Receptor cAMP Stimulation Activity: EC50
T1 construct: expressed in transfected cells; host or cells: COS-7 (COS7-human CTR Clone #2)
T1 sequence (P30988 25-474): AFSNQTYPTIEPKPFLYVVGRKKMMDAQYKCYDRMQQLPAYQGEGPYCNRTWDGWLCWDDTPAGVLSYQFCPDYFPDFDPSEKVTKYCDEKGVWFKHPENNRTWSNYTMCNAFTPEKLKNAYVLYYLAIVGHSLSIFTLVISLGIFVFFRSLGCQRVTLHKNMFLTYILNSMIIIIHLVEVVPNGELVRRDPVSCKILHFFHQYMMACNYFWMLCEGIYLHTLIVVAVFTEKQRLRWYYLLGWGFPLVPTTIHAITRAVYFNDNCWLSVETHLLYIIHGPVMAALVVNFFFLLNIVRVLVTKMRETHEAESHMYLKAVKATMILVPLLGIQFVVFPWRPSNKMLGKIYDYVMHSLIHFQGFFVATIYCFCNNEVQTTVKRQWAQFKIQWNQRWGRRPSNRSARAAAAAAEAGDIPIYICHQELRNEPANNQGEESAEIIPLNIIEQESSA
Summary of the method: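 COS-7 cells stably expressing human CTR (2000 cells/well) treated with 4-fold serially diluted compounds in HBSS/20 mM HEPES/0.5 mM IBMX/0.1% casein, 30 min at 37° C. cAMP quantified by HTRF (cAMP-d2 plus anti-cAMP cryptate, 1 h RT), fluorescence read at 665 and 615 nm.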

human calcitonin receptor (CTR) and RAMP3 (AMY3), sequence (O60896 24-148, one chain of several): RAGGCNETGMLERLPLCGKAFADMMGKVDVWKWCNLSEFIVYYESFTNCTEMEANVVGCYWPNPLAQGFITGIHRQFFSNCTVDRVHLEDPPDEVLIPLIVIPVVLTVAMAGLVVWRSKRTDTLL

SMILES | EC50 [1] [nM] | EC50 [2] [nM]
Cc1nnc(-c2c(CCc3ccc(F)cc3)nc3c(c2-c2cc4ccnc(N[C@@H]5CCc6ncccc65)c4s2)c(=O)n2n3CCC2)o1 [Compound 139, 9-(7-[(R)-4-aza-1-indanylamino]-1-thia-6-aza-2-indenyl}-11-[2-(p-fluorophenyl)ethyl]-10-(5-methyl-1,3,4-oxadiazol-2-yl)-2,6,12-triazatricyclo[6.4.0.0^2,6]dodeca-1(8),9,11-trien-7-one] | 150 | 8.78
Cc1nnc(-c2c(CCC3CCOCC3)nc3c(c2-c2ccn4c(Cc5ccc(F)c(F)c5)cnc4c2)S(=O)(=O)CC3C(C)C)o1 (stereo not drawn) [Compound 122, 7-(3-[(3,4-difluorophenyl)methyl]-1,3a-diaza-6-indenyl}-3-isopropyl-6-(5-methyl-1,3,4-oxadiazol-2-yl)-5-[2-(tetrahydro-2H-pyran-4-yl)ethyl]-1λ^6-thia-4-aza-1,1-indandione] | 1540 | 49.2
Cc1nnc(-c2c(CCc3ccc(F)cc3)nc3c(c2-c2cnc4c(ccn4Cc4ccc(C#N)c(F)c4)c2)c(=O)n2n3CCC2)o1 [Compound 141, 2-fluoro-4-[(5-(11-[2-(p-fluorophenyl)ethyl]-10-(5-methyl-1,3,4-oxadiazol-2-yl)-7-oxo-2,6,12-triazatricyclo[6.4.0.0]dodeca-1(12),8,10-trien-9-yl}-1H-1,7-diazainden-1-yl)methyl]benzonitrile] | 74.3 | 4.45
Cc1nnc(-c2c(CCC3CCOCC3)nc3c(c2-c2cc4ncnc(N[C@@H]5CCc6ncccc65)c4s2)S(=O)(=O)CC3C2CC2)o1 (stereo partly drawn) [Compound 103, N—(R)-4-aza-1-indanyl(2-(3-cyclopropyl-6-(5-methyl-1,3,4-oxadiazol-2-yl)-1,1-dioxo-5-[2-(tetrahydro-2H-pyran-4-yl)ethyl]-1λ^6-thia-4-aza-7-indanyl}-1-thia-4,6-diaza-7-indenyl)amine] | 1190 | 45.9
COc1noc(-c2c(CCc3ccc(F)cc3)nc3c(c2-c2cc4ccnc(N[C@@H]5CCc6c(OC)cccc65)c4s2)C(=O)N2CCC[C@@H]32)n1 [Compound 97, (S)-2-(4-fluorophenethyl)-3-(3-methoxy-1,2,4-oxadiazol-5-yl)-4-(7-(((R)-4-methoxy-2,3-dihydro-1H-inden-1-yl)amino)thieno[2,3-c]pyridin-2-yl)-7,8,9,9a-tetrahydro-5H-pyrido[2,3-a]pyrrolizin-5-one] | 318 | 20.7
COc1noc(-c2c(CCC3CCOCC3)nc3c(c2-c2cc4ccnc(N[C@@H]5CCc6ncccc65)c4s2)S(=O)(=O)CC3C(C)C)n1 (stereo partly drawn) [Compound 121, N—(R)-4-aza-1-indanyl(2-(3-isopropyl-6-(3-methoxy-1,2,4-oxadiazol-5-yl)-1,1-dioxo-5-[2-(tetrahydro-2H-pyran-4-yl)ethyl]-1λ^6-thia-4-aza-7-indanyl}-1-thia-6-aza-7-indenyl)amine] | 272 | 49.2
Cc1nnc(-c2c(CCC3CCOC(C)(C)C3)nc3c(c2-c2ccc4c(c2)oc(=O)n4Cc2ccc(C#N)c(F)c2)C(=O)N2CCOC[C@@H]32)o1 (stereo partly drawn) [Compound 112, 4-[(6-((4aR,9aR)-6-[2-(2,2-dimethyltetrahydro-2H-pyran-4-yl)ethyl]-7-(5-methyl-1,3,4-oxadiazol-2-yl)-9-oxo-1,2,4,4a-tetrahydro-9H-3-oxa-5,9a-diazafluoren-8-yl}-2-oxo-1,3-benzoxazol-3-yl)methyl]-2-fluorobenzonitrile] | 124 | 5.3
Cc1nnc(-c2c(CCC3CCOCC3)nc3c(c2-c2cc4ccnc(N[C@@H]5CCc6ncccc65)c4s2)S(=O)(=O)CC3C)o1 (stereo partly drawn) [Compound 94, N—(R)-4-aza-1-indanyl(2-(3-methyl-6-(5-methyl-1,3,4-oxadiazol-2-yl)-1,1-dioxo-5-[2-(tetrahydro-2H-pyran-4-yl)ethyl]-1λ^6-thia-4-aza-7-indanyl}-1-thia-6-aza-7-indenyl)amine] | 1150 | 179
Cc1nnc(-c2c(CCC3CCOCC3)nc3c(c2-c2cc4ccnc(N[C@@H]5CCc6ncccc65)c4s2)S(=O)(=O)CC3C(C)C)o1 (stereo partly drawn) [Compound 78, 7-(7-(((R)-6,7-dihydro-5H-cyclopenta[b]pyridin-5-yl)amino)thieno[2,3-c]pyridin-2-yl)-3-isopropyl-6-(5-methyl-1,3,4-oxadiazol-2-yl)-5-(2-(tetrahydro-2H-pyran-4-yl)ethyl)-2,3-dihydrothieno[3,2-b]pyridine 1,1-dioxide] | 187 | 13
Cc1nnc(-c2c(CCC3CCOCC3)nc3c(c2-c2ccc4c(c2)oc(=O)n4Cc2ccc(C#N)cn2)S(=O)(=O)N2CCC[C@@H]32)o1 [Compound 127, 6-[(6-{(2S)-10-(5-methyl-1,3,4-oxadiazol-2-yl)-7,7-dioxo-11-[2-(tetrahydro-2H-pyran-4-yl)ethyl]-7λ^6-thia-6,12-diazatricyclo[6.4.0.0^2,6]dodeca-1(12),8,10-trien-9-yl}-2-oxo-1,3-benzoxazolidin-3-yl)methyl]nicotinonitrile] | 209 | 3.86

Further lines, results first:

EC50 [1] [nM] | EC50 [2] [nM] | SMILES
2070 | 129 | Cc1nnc(-c2c(CCC3CCCCO3)nc3c(c2-c2ccc(C(=O)NCc4ccc(F)c(F)c4)s2)C(=O)N2CCC[C@@H]32)o1 (stereo partly drawn) [Compound 62, N-(3,4-difluorobenzyl)-5-((9aS)-3-(5-methyl-1,3,4-oxadiazol-2-yl)-5-oxo-2-(2-(tetrahydro-2H-pyran-2-yl)ethyl)-7,8,9,9a-tetrahydro-5H-pyrido[2,3-a]pyrrolizin-4-yl)thiophene-2-carboxamide]
40.1 | 7.28 | Cc1cnc(-c2c(CCC3CCOCC3)nc3c(c2-c2ccc4c(c2)oc(=O)n4Cc2ccc(C#N)c(F)c2)c(=O)n2n3CCC2)o1 [Compound 152, 2-fluoro-4-[(6-(10-(5-methyl-1,3-oxazol-2-yl)-7-oxo-11-[2-(tetrahydro-2H-pyran-4-yl)ethyl]-2,6,12-triazatricyclo[6.4.0.0^2,6]dodeca-1(12),8,10-trien-9-yl}-2-oxo-1,3-benzoxazol-3-yl)methyl]benzonitrile]
15.2 | 1.86 | CC(C)c1nnc(-c2c(CCC3CCOCC3)nc3c(c2-c2ccc4c(c2)oc(=O)n4Cc2ccc(C#N)c(F)c2)c(=O)n2n3CCC2)o1 [Compound 150, 2-fluoro-4-[(6-(10-(5-isopropyl-1,3,4-oxadiazol-2-yl)-7-oxo-11-[2-(tetrahydro-2H-pyran-4-yl)ethyl]-2,6,12-triazatricyclo[6.4.0.0^2,6]dodeca-1(8),9,11-trien-9-yl}-2-oxo-1,3-benzoxazol-3-yl)methyl]benzonitrile]
> 100 | 6580 | Cc1nnc(-c2c(CCC3CCOCC3)nc3c(c2C2CCN(C(=O)Cc4ccc(F)c(F)c4)C2)S(=O)(=O)CC3C(C)C)o1 (stereo not drawn) [Compound 107, 7-{1-[2-(3,4-difluorophenyl)acetyl]-3-pyrrolidinyl}-3-isopropyl-6-(5-methyl-1,3,4-oxadiazol-2-yl)-5-[2-(tetrahydro-2H-pyran-4-yl)ethyl]-1D′-thia-4-aza-1,1-indandione]
6180 | 184 | Cc1nnc(-c2c(CCC3CCCO3)nc3c(c2-c2cc4ncnc(N[C@@H]5CCc6ncccc65)c4s2)S(=O)(=O)CC3C(C)C)o1 (stereo partly drawn) [Compound 100, N—(R)-4-aza-1-indanyl(2-(3-isopropyl-6-(5-methyl-1,3,4-oxadiazol-2-yl)-1,1-dioxo-5-[2-(tetrahydro-2-furyl)ethyl]-1λ^6-thia-4-aza-7-indanyl}-1-thia-4,6-diaza-7-indenyl)amine]
155 | 11.3 | Cc1nnc(-c2c(CCC3CCOCC3)nc3c(c2-c2ccc4c(cnn4C(C)c4ccc(C#N)c(F)c4)c2)C(=O)N2CCOC[C@@H]32)o1 (stereo partly drawn) [Compound 111, 4-[1-(5-((4aR)-7-(5-methyl-1,3,4-oxadiazol-2-yl)-9-oxo-6-[2-(tetrahydro-2H-pyran-4-yl)ethyl]-1,2,4,4a-tetrahydro-9H-3-oxa-5,9a-diazafluoren-8-yl}-1H-indazol-1-yl)ethyl]-2-fluorobenzonitrile]
8.8 | 0.336 | Cc1nnc(-c2c(CCc3ccc(F)cc3)nc3c(c2-c2ccc4c(c2)oc(=O)n4C(C)c2ccc(C#N)c(F)c2)c(=O)n2n3CCC2)o1 (stereo not drawn) [Compound 140, 2-fluoro-4-[1-(6-(11-[2-(p-fluorophenyl)ethyl]-10-(5-methyl-1,3,4-oxadiazol-2-yl)-7-oxo-2,6,12-triazatricyclo[6.4.0.0^2,6]dodeca-1(12),8,10-trien-9-yl}-2-oxo-1,3-benzoxazol-3-yl)ethyl]benzonitrile]
54.7 | 1.49 | Cc1cnc(-c2c(CCC34CCC(CC3)OC4)nc3c(c2-c2ccc4c(c2)OCC(=O)N4Cc2ncc(Cl)cc2F)c(=O)n2n3CCC2)o1 [Compound 156]
